Values joined by “and” are separate entries in the source; they are usually repeats but may differ in a detail not shown here. Equal entries are not always repeated.
Key:
TMD8 cells [1] = assay: cells; set-up: species or system TMD8 or OCI-Ly3; Inhibition of spontaneous IL-6 secretion from ABC-DLBCL cells, human IL-6 ELISA of supernatants; details: Homo sapiens, TMD8, 20 h; IL-6 secretion; read-out: IC50 (µM) IL-6 inhibition
Experimental: (§1) Cytokine ELISAs. Cytokines in cell culture supernatants were measured 20-24h after treatment with 0, 0.01, 0.03, 0.1, 0.3, 1, or 3 µM of compounds using the following ELISA kits according to the manufacturer’s instructions: Human IL-2 ELISA (BioLegend Cat# 431804), Human IL-6 ELISA (BioLegend Cat# 430504), and Human IL-10 ELISA (BioLegend Cat# 430604). TMD8 and OCI-Ly3 cells were treated with specific doses of compounds in serum-free media for 20 hours. Jurkat T cells were pretreated with specific doses of compounds for 8 hours in serum-free media, then stimulated with PMA/ionomycin for 16 hours prior to the collection of supernatants. Mouse splenocytes were isolated from spleens of C57/BL6 mice by passing spleens through a 70 micron filter followed by red blood cell lysis using ACK lysing buffer (Quality Biologics, Cat# 118-156-101). […] Supernatant was collected at 24 hours and mouse IL-2 levels were analyzed via ELISA (R&D Systems, Cat# DY402-05). IL-6 and IL-10 are NF-κB–induced cytokines that promote the proliferation and survival of malignant B cells through both autocrine and paracrine mechanisms ([44]), and are negative prognostic factors in ABC-DLBCL ([45], [46]). ABC-DLBCL cell lines spontaneously secrete substantial levels of IL-6 and IL-10, whereas GCB-DLBCL cell lines express only a negligible amount of these cytokines ([24]). […] The IC50 for inhibition of cytokine secretion by each compound in each cell line is reported in Supplemental Table 1.  Figure 4 M1i-124 and M1i-124d1 inhibit MALT1 protease and scaffolding functions, and MALT1-dependent cytokine secretion, in ABC-DLBCL cells. (A and B) Effect of 1 μM compound pretreatment on constitutive RelB cleavage (A) and IκB phosphorylation (B) within TMD8 cells. Representative Western blots are shown along with quantification (mean ± SEM; n = 2). (C) IL6 and IL10 mRNA levels in TMD8 cells treated with 1 μM M1i-124 or M1i-124d1 (mean ± SEM; n = 6). […] Statistical analyses were performed using 1-way ANOVA and Dunnett’s multiple-comparison test. **P < 0.01, ***P < 0.001, ****P < 0.0001.

OCI-Ly3 cells [2] = assay: cells; set-up: species or system TMD8 or OCI-Ly3; Inhibition of spontaneous IL-6 secretion from ABC-DLBCL cells, human IL-6 ELISA of supernatants; details: Homo sapiens, OCI-Ly3, 20 h; IL-6 secretion; read-out: IC50 (µM) IL-6 inhibition
Experimental: as §1

OCI-Ly1 cells = assay: Apoptosis, annexin V/SYTOX Blue flow cytometry; format: cell-based, human
Experimental: Cell proliferation, viability, and apoptosis assays. […]
Annexin V Alexa 488
(ThermoFisher Scientific, Cat# A13201) and SYTOX Blue Dead Cell (ThermoFisher Scientific, Cat# S34857) stains were used to detect apoptosis in DLBCL cells after treatment with 1 µM compounds for 8 days in TMD8 and OCI-Ly1 and for 5 days in OCI-Ly3 cells, then analyzed with flow cytometry. The percentages of cells in early and late apoptosis were combined for quantification. For CellTrace Violet, CellTiter-glo, and Annexin V apoptosis assays, cell were cultured in media with 50% of the usual serum. […]

TMD8 cells [3] = assay: IL-6 and IL-10 secretion, cytokine ELISA; format: cell-based, human; details: for IL-6 and IL-10 secretion: TMD8, result in words
Experimental: (§2) Cytokine ELISAs. Cytokines in cell culture supernatants were measured 20-24h after treatment with 0, 0.01, 0.03, 0.1, 0.3, 1, or 3 µM of compounds using the following ELISA kits according to the manufacturer’s instructions: Human IL-2 ELISA (BioLegend Cat# 431804), Human IL-6 ELISA (BioLegend Cat# 430504), and Human IL-10 ELISA (BioLegend Cat# 430604). […]

OCI-Ly3 cells [4] = assay: IL-6 and IL-10 secretion, cytokine ELISA; format: cell-based, human; details: for IL-6 and IL-10 secretion: OCI-Ly3, result in words; for IL-6 protein (normalized) / IL-10 protein (normalized): OCI-Ly3 cells, individual replicates n=3
Experimental: as §2

[5] = system: IκB phosphorylation in TMD8 cells; assay: Constitutive IκB phosphorylation, Western blot; format: cell-based, human; details: for IκB phosphorylation in TMD8 cells: result in words
Experimental: (§3) Western blot analysis of RelB and N4BP1 cleavage was used to test the effect of small molecules on MALT1 protease activity. To this end, 3 million Jurkat T cells were pretreated with compounds for 24 hours in serum-free media, and then 5 μM MG-132 was added for 1 hour before stimulation with CD3/CD28 (Stemcell Technologies, catalog 10971), and lysed in RIPA buffer (Millipore, catalog 20-188) with protease and phosphatase inhibitor cocktail (Pierce, catalog 78446). IKKα/β phosphorylation and IκBα phosphorylation were used as measures of MALT1 scaffolding activity, while ERK1/2 phosphorylation was used as a control. Two million Jurkat T cells were treated with 1 μM M1i-124, 1 μM M1i-124d1, or DMSO in serum-free media for 16 hours, stimulated with CD3/CD28 for 0, 5, 10, or 20 minutes, and then immediately lysed in RIPA buffer with protease and phosphatase inhibitors. For experiments evaluating RelB cleavage and phosphorylation of IκBα in TMD8 cells, cells were treated with compounds for 24 hours in media containing 5% FBS. For RelB Western blot analysis, 5 μM MG-132 (Cell Signaling Technology, catalog 2194s) was added 4 hours before lysis in RIPA lysis buffer with protease/phosphatase inhibitors.

[6] = system: IKKα/β phosphorylation in Jurkat T cells; assay: IKKα/β phosphorylation after CD3/CD28 stimulation (MALT1 scaffolding activity); format: cell-based, human; details: for pIKK (normalized): Jurkat, 1 μM; for IKK phosphorylation: result in words
Experimental: as §3

Compound | IC50 (TMD8 cells [1]) [µM] | IC50 (OCI-Ly3 cells [2]) [µM] | IL-6 protein (normalized) (TMD8 cells [3]; TMD8, Dose (µM) 0.01) | IL-10 protein (normalized) (TMD8 cells [3]; TMD8, Dose (µM) 0.01) | IL-6 protein (normalized) (TMD8 cells [3]; TMD8, Dose (µM) 0.03) | IL-10 protein (normalized) (TMD8 cells [3]; TMD8, Dose (µM) 0.03) | IL-6 protein (normalized) (TMD8 cells [3]; TMD8, Dose (µM) 0.1) | IL-10 protein (normalized) (TMD8 cells [3]; TMD8, Dose (µM) 0.1) | IL-6 protein (normalized) (TMD8 cells [3]; TMD8, Dose (µM) 0.3) | IL-10 protein (normalized) (TMD8 cells [3]; TMD8, Dose (µM) 0.3) | IL-6 protein (normalized) (TMD8 cells [3]; TMD8, Dose (µM) 1) | IL-10 protein (normalized) (TMD8 cells [3]; TMD8, Dose (µM) 1) | IL-6 protein (normalized) (TMD8 cells [3]; TMD8, Dose (µM) 3) | IL-10 protein (normalized) (TMD8 cells [3]; TMD8, Dose (µM) 3) | IL-6 and IL-10 secretion (TMD8 cells [3]) | IL-6 and IL-10 secretion (OCI-Ly3 cells [4]) | IL-6 protein (normalized) (OCI-Ly3 cells [4]; dose 0.01 µM) | IL-10 protein (normalized) (OCI-Ly3 cells [4]; dose 0.01 µM) | IL-6 protein (normalized) (OCI-Ly3 cells [4]; dose 0.03 µM) | IL-10 protein (normalized) (OCI-Ly3 cells [4]; dose 0.03 µM) | other results
O=S(=O)(NCc1ccc2c(c1)OCO2)c1ccc(Cc2ccc(S(=O)(=O)NCc3ccc4c(c3)OCO4)cc2)cc1 [M1i-124] | 1.3 | 0.8 | 95.9364 and 102.213 and 93.8323 | 92.0215 and 104.795 and 93.5401 | 87.0698 and 93.9663 and 88.6054 | 92.6437 and 90.5031 and 81.0478 | 69.9434 and 74.7992 and 78.3531 | 68.4368 and 67.4137 and 68.4567 | 69.7251 and 64.7937 and 50.8437 | 56.1427 and 56.6527 and 44.4473 | 36.3116 and 40.2609 and 34.3135 | 37.7839 and 38.0405 and 34.7537 | 26.8371 and 27.7392 and 25.9151 | 23.1611 and 23.3192 and 20.6767 | dose-dependent reduction of IL-6 and IL-10 secretion | dose-dependent reduction of IL-6 and IL-10 secretion | 107.046 and 97.7137 and 87.0295 | 103.16 and 104.534 and 97.5052 | 96.5093 and 109.876 and 83.6147 | 91.281 and 93.6459 and 78.8249 | Annexin (% positivity) (OCI-Ly1 cells; Ly1, individual replicates): 14.6% and 13.45% and 17.85%; IC50 (TMD8 cells [3]; Homo sapiens, cell-based assays measuring functional MALT1 inhibition, span over cytokines and cell lines (TMD8, OCI-Ly3; Supplemental Table 1)): 500 to 1300 nM; IL-6 protein (normalized) (OCI-Ly3 cells [4]; dose 0.1 µM): 75.4106 and 89.2481 and 95.3244; IL-10 protein (normalized) (OCI-Ly3 cells [4]; dose 0.1 µM): 87.8156 and 90.4046 and 87.8267; IL-6 protein (normalized) (OCI-Ly3 cells [4]; dose 0.3 µM): 61.7285 and 64.3367 and 64.4209; IL-10 protein (normalized) (OCI-Ly3 cells [4]; dose 0.3 µM): 53.7308 and 68.0081 and 65.3126; IL-6 protein (normalized) (OCI-Ly3 cells [4]; dose 1 µM): 45.5755 and 29.5412 and 43.2472; IL-10 protein (normalized) (OCI-Ly3 cells [4]; dose 1 µM): 42.8574 and 34.5822 and 37.4365; IL-6 protein (normalized) (OCI-Ly3 cells [4]; dose 3 µM): 32.8587 and 36.4245 and 37.9702; IL-10 protein (normalized) (OCI-Ly3 cells [4]; dose 3 µM): 27.1129 and 25.9246 and 27.6249; IκB phosphorylation in TMD8 cells [5]: marked reduction in IκB phosphorylation; pIKK (normalized) ([6]; CD3/CD28 0 min): 0.4315 and 0.5112 and 0.3213 and 0.2741 and 0.4341; IKK phosphorylation [6]: reduced IKK phosphorylation
COc1ccc(CNS(=O)(=O)c2ccc(Cc3ccc(S(=O)(=O)NCc4ccc(OC)cc4)cc3)cc2)cc1 [M1i-124d1] | 0.8 | > 3 | 93.5197 and 93.7514 and 94.5387 | 69.769 and 89.382 and 96.8917 | 91.3047 and 88.3022 and 85.704 | 62.2564 and 54.1514 and 73.6549 | 77.5452 and 70.6916 and 62.4629 | 60.4815 and 45.5606 and 38.3417 | 55.6968 and 55.4486 and 52.1775 | 40.1613 and 36.3491 and 28.9939 | 45.5895 and 45.5473 and 39.027 | 29.9544 and 27.9974 and 29.4587 | 41.6763 and 36.3341 and 29.5994 | 27.5683 and 24.6599 and 35.0793 | dose-dependent reduction of IL-6 and IL-10 secretion | dose-dependent reduction of IL-6 and IL-10 secretion | 99.5607 and 97.9207 and 112.031 | 79.7769 and 92.2916 and 96.3976 | 98.1802 and 88.2708 and 79.406 | 92.2982 and 70.1649 and 75.2443 | Percent Apoptotic cells (OCI-Ly1 cells; OCI-Ly1): 9.94% and 10.39% and 9.5% and 11.36% and 12.09% and 11.72%; IL-6 protein (normalized) (OCI-Ly3 cells [4]; dose 0.1 µM): 82.137 and 88.0559 and 90.8694; IL-10 protein (normalized) (OCI-Ly3 cells [4]; dose 0.1 µM): 78.4383 and 79.1463 and 60.8949; IL-6 protein (normalized) (OCI-Ly3 cells [4]; dose 0.3 µM): 78.0338 and 77.6618 and 76.9556; IL-10 protein (normalized) (OCI-Ly3 cells [4]; dose 0.3 µM): 68.3626 and 76.063 and 76.9269; IL-6 protein (normalized) (OCI-Ly3 cells [4]; dose 1 µM): 82.5608 and 76.3464 and 79.062; IL-10 protein (normalized) (OCI-Ly3 cells [4]; dose 1 µM): 58.0215 and 44.447 and 56.2881; IL-6 protein (normalized) (OCI-Ly3 cells [4]; dose 3 µM): 67.8445 and 70.7121 and 79.6228; IL-10 protein (normalized) (OCI-Ly3 cells [4]; dose 3 µM): 43.78 and 51.6743 and 38.3491; pIkB (normalized) ([5]; TMD8, 1 μM, 24 hours): 0.264 and 0.345; IκB phosphorylation in TMD8 cells [5]: marked reduction in IκB phosphorylation; pIKK (normalized) ([6]; CD3/CD28 10 min): 0.3485 and 0.3518 and 0.2777 and 0.3582 and 0.2291; IKK phosphorylation [6]: reduced IKK phosphorylation

— article PMC11996864, “A small-molecule inhibitor of BCL10-MALT1 interaction abrogates progression of diffuse large B cell lymphoma” (The Journal of Clinical Investigation, 2025)
